# Marks after values point to notes of the source that are not given here.
# What was measured:
# [1] = system: Pa PA14 biofilm transcriptome; assay: RNASeq transcriptome of biofilm cultures; type: cell-based, P. aeruginosa; details: 5 h
# Experimental: Because 1-OH-PHZ induces iron starvation in A. fumigatus (Briard et al. (2015) Scientific Reports. 2015; 5), it was speculated that the abrogation of biofilm development in P. aeruginosa grown in the presence of either PodA or 1-OH-PHZox may be mediated by a response to Fe-limitation. To test this idea, changes to the transcriptome of Pa PA14 by RNASeq were assessed. After 5 h of incubation in the presence of PodA (1 μM), 1-OH-PHZ (200 μM) or PYO (200 μM), RNA was prepared from 1 ml of biofilm cultures (250 μl pooled from 4 static biofilm chambers) for analysis on an Illumina HiSeq 2500 sequencer at the Millard and Muriel Jacobs Genetics and Genomics Laboratory, as previously described (Babin et al. (2016) Proc Natl Acad Sci USA. 113(5):E597-E605; Kreamer et al. (2015) M Bio. 2015; 6(2):e02549. Epub 2015/02/26). This experiment was designed to identify genes that were likely to be specifically affected by PodA's transformation of PYO to 1-OH-PHZ under a condition that inhibited biofilm formation (FIG. 20A). As a reference for genes responsive to iron availability, these transcriptomes were compared to those previously found to respond to Fe(II) shock (Kreamer et al. (2015) M Bio. 2015; 6(2):e02549. Epub 2015/02/26).
# [2] = system: P. aeruginosa planktonic culture; assay: Phenazines in planktonic P. aeruginosa cultures (HPLC); type: cell-based; details: 24 hours
# Description: Product was cut with DpnI to remove WT vector, phosphorylated with T4 polynucleotide kinase, and ligated to generate a circular mutant protein expression construct. For D72N and Y156F mutants, DNA fragments encoding the mutation were synthesized (Integrated DNA Technologies) and cloned into pET-20b(+) as for the wild type sequence. Enzymes for cloning were purchased from New England Biolabs. Constructs were transferred to E. coli BL21(DE3) for expression. All mutations were confirmed by Sanger sequencing (Laragen and Retrogen). When necessary, 100 μg mL^−1 carbenicillin was included in all growth media to maintain selection for the plasmid. To measure the effect of PodA30-162 on phenazine production in planktonically grown P. aeruginosa, cultures were grown overnight in 5 mL volumes of tryptic soy broth (TSB) or succinate minimal medium (arginine medium recipe from Glasser et al., 2014 with 40 mM sodium succinate in place of arginine) (3) in the presence 1 μg mL^−1 PodA30-162. Cells were removed by centrifugation and supernatants were analyzed by HPLC as previously described (9). See below for a description of biofilm growth of P. aeruginosa PA14. To induce protein expression, an overnight culture was inoculated 1/1000 in Terrific Broth (BD Difco). Cultures were grown in baffled Erlenmeyer flasks (1 L culture per 3 L flask) at 37° C. with 150 rpm agitation in a shaking incubator (Innova 44 shaking incubator, New Brunswick). After 3-4 hours, the temperature was changed to 16° C. and cultures were induced with 50 μM (final concentration) IPTG and left to incubate overnight. Cells were then pelleted by centrifugation, flash frozen in liquid N2, and stored at −80° C. for up to 1 month before protein purification.
# Pa PA14 biofilm = assay: Biofilm biomass by DAPI intensity (Example 7); type: cell-based, P. aeruginosa
# Experimental: In this example, to check for an effect of PodA or 1-OH-PHZ on biofilm development, Pa PA14 was grown in 8-well chambered microscope slides designed for biofilm imaging, as previously reported (Das et al. (2015) Sci Rep. 5:8398). Overnight cultures of Pa PA14 were diluted to a starting optical density of 0.25 and grown directly on the slides (volume of 250 μl per chamber). After 5 h incubation at 37° C., planktonic cells were rinsed from the slide and remaining cells were stained with DAPI. Biofilm biomass was quantified by DAPI intensity on a Leica confocal microscope, with LAS X software. Pa PA14 incubated in the presence of 1 μM PodA or 100 μM 1-OHPHZox had ˜50% the biofilm biomass of Pa PA14 alone (FIG. 20A).
# PA14 [3] = assay: Redox cycles over 7 days and support of survival (Table 1); type: cell-based, P. aeruginosa
# P. aeruginosa biofilm [4] = assay: Optical density of P. aeruginosa biofilm; type: cell-based; details: PodA vs inactive E154A; 1-OH-PHZ vs 1% DMSO
# P. aeruginosa biofilm [5] = assay: Microcolony number and size in 5 hour biofilms on succinate minimal medium; type: cell-based; details: 100 μM 1-OHPHZ or 0.5 μg mL-1 PodA
# Description: FIGS. 24A-C show charts and images illustrating results of exemplary experiments showing that PodA and 1-OH-PHZ inhibit the early stages of P. aeruginosa biofilm formation on succinate minimal medium. […] Numbers are averages and SD from 8 biological replicates.
# [6] = Kidani 1958; cited from earlier work
# [7] = oxidized form, values from references a, c, d; cited from earlier work
# PA14 [8] = assay: Reduction of redox-active compounds by PA14 (Table 1); type: cell-based, P. aeruginosa
# P. aeruginosa Δphz = details: 25 μM PYO; images from Ramos et al., 2010; cited from earlier work
# E. coli DH5α = details: 100 μM PYO vs absence of PYO; cited from earlier work
# S. oneidensis MR1 = details: 100 μM PYO vs absence of PYO; cited from earlier work
# [9] = PYO's hydroxyl group; cited from earlier work
# S. aureus MN8 = details: 100 μM PYO vs absence of PYO; cited from earlier work
smiles,measurement,setting,value
"Oc1cccc2nc3ccccc3nc12 [1-OH-PHZ, 1-Hydroxyphenazine]",upregulation of genes in iron responsive pathways,[1]; 200 μM,2-10 fold
same,expression of small gene cluster incl. QapR regulon,[1],upregulated modestly
same,production of PYO,[2]; minimal medium with succinate,negative impact
same,phenazine production,[2]; tryptic soy broth,changes to the concentrations of all four phenazines
same,biofilm biomass relative to Pa PA14 alone,"Pa PA14 biofilm; 1 μM PodA or 100 μM 1-OHPHZox, 5 h at 37° C",~50%
same,biofilm formation compared to untreated control,"Pa PA14 biofilm; PodA 1 μM, 1-OH-PHZ 100 μM, total DAPI staining",inhibit biofilm formation
same,concentration at which biofilm inhibition saturates,Pa PA14 biofilm; dose-dependent response,200 µM
same,# of Redox cycles over 7 days,PA14 [3],14
same,Support survival?,PA14 [3],Yes
same,optical density of biofilm,P. aeruginosa biofilm [4],not significantly different
same,microcolony diameter,P. aeruginosa biofilm [5],does decrease
same,number of microcolonies formed,P. aeruginosa biofilm [5]; vs inactive E154A,does not significantly affect
same,log of the equilibrium constant βmlh of binding copper,[6],8.68
same,"E^0, (vs. NHE)",[7],−174^a mV
same,Reduction by PA14?,PA14 [8],Yes
"Cn1c2cccc(=O)c-2nc2ccccc21 [PYO, Pyocyanin]",biofilm production of Δphz,P. aeruginosa Δphz,restored
same,colony growth,E. coli DH5α,decreased colony growth
same,"log(2) changes relative to untreated control, metal scavenging and starvation response genes (FIG. 21A)","[1]; PodA 1 μM, 1-OH-PHZ 200 μM, PYO 200 μM",~0 log(2)
same,colony growth,S. oneidensis MR1,decreased colony growth
same,# of Redox cycles over 7 days,PA14 [3],31
same,Support survival?,PA14 [3],Yes
same,pKa,[9],~5
same,"E^0, (vs. NHE)",[7],−40^a mV
same,colony growth,S. aureus MN8,decreased colony growth
same,Reduction by PA14?,PA14 [8],Yes

# — US12241094B2, “Phenazine degrading agents and related compositions, methods and systems for interfering with viability of bacteria” (priority 2016, dated 2025)
